Measured values as given in patent US5545637A, “Process for preparing pharmaceutical compositions containing crystalline anhydrous mycophenolate mofetil salts” (Syntex (U.S.A.) Inc., priority 1995, dated 1996).
Where a name gives a salt, the structure may show the parent alone.

Assays:
Format in all cases: physicochemical
[1] = Comparative solubility of MM salt forms
[2] = Solubility in typical intravenous formulation solutions; conditions: viewed over 3 days, typical intravenous formulation solutions (e.g., 5% dextrose solution or water suitable for injection), 4320 min
[3] = Comparative stability of MM salt forms; conditions: comparison of salt forms, in words

COc1c(C)c2c(c(O)c1C/C=C(\C)CCC(=O)OCCN1CCOCC1)C(=O)OC2 [amorphous salt form]
solubility characteristics ([1]; amorphous vs monohydrate salt form, in words): better solubility characteristics

COc1c(C)c2c(c(O)c1C/C=C(\C)CCC(=O)OCCN1CCOCC1)C(=O)OC2 [2-(4-morpholino)ethyl-(E)-6-(1,3-dihydro-4-hydroxy-6-methoxy-7-methyl-3-oxo-5-isobenzofuranyl)-4-methyl-4-hexenoate hydrochloride]
solubility ([2]; hydrochloride): approximately 84 mg/ml

COc1c(C)c2c(c(O)c1C/C=C(\C)CCC(=O)OCCN1CCOCC1)C(=O)OC2 [crystalline monohydrate form]
solubility [2]: approximately 40 mg/ml

COc1c(C)c2c(c(O)c1C/C=C(\C)CCC(=O)OCCN1CCOCC1)C(=O)OC2 [MM in its monohydrate salt form]
stability [3]: more stable than MM in its amorphous salt form

COc1c(C)c2c(c(O)c1C/C=C(\C)CCC(=O)OCCN1CCOCC1)C(=O)OC2 [crystalline anhydrous salt form of MM]
increase in solubility over the monohydrate salt form ([1]; anhydrous vs monohydrate salt form): about a two-fold increase in solubility over the monohydrate salt form | stability [3]: the same stability characteristics of the monohydrate salt form
